From the NIST ThermoML archive (doi:10.1021/je050327l)
Numbers after ± are expanded uncertainties.

Details: Liquid, Ebulliometric method (Recirculating still)

## CC(C=O)c1ccccc1 (stereo unspecified) [2-phenylpropanal]
373.1 K
  vapor or sublimation pressure: 3.056 ± 0.084 kPa
423.15 K
  vapor or sublimation pressure: 20.97 ± 0.14 kPa

## Oc1ccccc1 [phenol]
373.1 K
  vapor or sublimation pressure: 5.529 ± 0.11 kPa
423.15 K
  vapor or sublimation pressure: 39.18 ± 0.2 kPa

## COC [dimethyl ether]
253.05 K
  vapor or sublimation pressure: 125 ± 1.1 kPa
293.15 K
  vapor or sublimation pressure: 508.1 ± 2.2 kPa

## C=CC [propene]
253.05 K
  vapor or sublimation pressure: 307.2 ± 2.2 kPa
293.15 K
  vapor or sublimation pressure: 1015.9 ± 4.4 kPa

## COCC(C)O (stereo unspecified) [1-methoxy-2-propanol]
313.15 K
  vapor or sublimation pressure: 3.614 ± 0.093 kPa
353.15 K
  vapor or sublimation pressure: 24.18 ± 0.15 kPa

## CCCC(=O)O [butanoic acid]
373.1 K
  vapor or sublimation pressure: 9.38 ± 0.13 kPa
413.15 K
  vapor or sublimation pressure: 45.85 ± 0.23 kPa

## CCC(=O)O [propanoic acid]
373.1 K
  vapor or sublimation pressure: 23.38 ± 0.23 kPa
413.15 K
  vapor or sublimation pressure: 96.29 ± 0.45 kPa

## CC[N+](=O)[O-] [nitroethane]
313.15 K
  vapor or sublimation pressure: 6.097 ± 0.11 kPa
353.15 K
  vapor or sublimation pressure: 33.11 ± 0.18 kPa
